Reference: US20190022152A1, “MICROBIOME RESPONSE TO AGENTS” (Yeda Research and Development Co., Ltd., priority 2014, published 2019)
Peptide text beside a SMILES is read from it.

Key:
[1] = system: fecal matter from naïve mice; assay: In vitro anaerobic culturing of fecal matter with saccharin; format: cell-based; settings: In vitro, PBS vs. SAC
Procedure: pooled fecal matter from naïve adult WT C57Bl/6 male mice was resuspended in 5 ml PBS in an anaerobic chamber (Coy Laboratory Products, 75% N2, 20% CO2, 5% H2), vortexed for 3 minutes and allowed to settle by gravity for 2 minutes. […] were added to a tube containing Chopped Meat Carbohydrate Broth, PR II (BD) and […] of a 5 mgml-1 saccharin solution or an equal volume of PBS. Every 3 days, 500 ml of culture were diluted to fresh medium containing saccharin or PBS. After 9 days, cultures were used for inoculation of germ-free mice.
Frozen fecal samples were processed for DNA isolation using the MoBio PowerSoil kit according to the manufacturer's instructions. […] the variable region 2 (V2) of the 16S rRNA gene were generated by using the following barcoded primers: Fwd 5′-[…]-3′ (SEQ ID NO: 3), Rev 5′-[…]-3′ (SEQ ID NO: 4). […] Reads were then processed using the QIIME (Quantitative Insights Into Microbial Ecology) analysis pipeline as described, version 1.8. Paired-end joined sequences were grouped into operational taxonomic units (OTUs) using the UCLUST algorithm and the greengenes database. Sequences with distance-based similarity of 97% or greater over median sequence length of 353 bp were assigned to the same OTU. Samples were grouped according to the treatment. […] P-values were FDR corrected for multiple hypothesis testing.

mice = assay: Oral glucose tolerance test in mice drinking non-caloric artificial sweeteners (NAS); format: in vivo; settings: lean C57Bl/6 mice, normal chow, commercial NAS formulations in drinking water, week 11; p<0.001 vs water, glucose, sucrose
Description: C57Bl/6 WT adult male mice were randomly assigned (without blinding) to treatment groups and were given commercial artificial sweeteners (saccharin-, sucralose- or aspartame-based) or pure saccharin (Sigma Aldrich) in drinking water and fed a high-fat (HFD D12492, 60% Kcal from fat, Research Diets) or standard polysaccharide normal chow (NC) diet (Harlan-Teklad). Compared groups were always fed from the same batch of diet. For antibiotic treatment, mice were given a combination of ciprofloxacin (0.2 gl^−1) and metronidazole ([…]) or vancomycin (0.5 gl^−1) in their drinking water. All antibiotics were obtained from Sigma Aldrich. Adult male outbred Swiss-Webster mice (a widely used mouse strain in germ-free experiments) served as recipients for fecal transplants and were housed in sterile isolators (Park Biosciences). For fecal transplantation experiments, 200 mg of stool (from mouse pellets or human swabs) was resuspended in 5 ml of PBS under anaerobic conditions, vortexed for 3 minutes and allowed to settle by gravity for 2 minutes. Recipient mice were gavaged with 200 μl of the supernatant and maintained on standard NC diet and water throughout the experiment.
The following commercially available NAS were dissolved in mice drinking water to obtain a 10% solution: Sucrazit (5% saccharin, 95% glucose), Sucralite (5% Sucralose), Sweet'n Low Gold (4% Aspartame). 10% glucose (J.T. Baker) and 10% sucrose (Sigma Aldrich) solutions were used for controls. […] For experiments conducted with pure saccharin (Sigma Aldrich) a 0.1 mgml^−1 solution was used in order to meet with FDA defined ADI for saccharin in humans (5 mgkg^−1), according to the following calculation:
Mice were fasted for 6 hours during the light phase, with free access to water. In all groups of mice where the drinking regime was other than water, it was substituted for water for the period of the fasting and glucose or insulin tolerance test. Blood from the tail vein was used to measure glucose levels using a glucometer (Bayer) immediately before and 15, 30, 60, 90 and 120 minutes after oral feeding with 40 mg glucose (J.T. Baker) or intra-peritoneal injection with 0.1 Ukg^−1 Insulin (Biological Industries). Plasma fasting insulin levels were measured in sera collected immediately before the start of GTT using ELISA (Ultra Sensitive Mouse Insulin ELISA Kit, Crystal Chem).

[2] = literature values; cited from earlier work

O=C1NS(=O)(=O)c2ccccc21 [SAC]
Log_fold change: 2-Oxocarboxylic acid metabolism [1]: 0.01 | Log_fold change: ABC transporters [1]: −0.03 | Log_fold change: Alanine, aspartate and glutamate metabolism [1]: −0.01 | Log_fold change: Amino sugar and nucleotide sugar metabolism [1]: 0.01 | Log_fold change: Aminoacyl-tRNA biosynthesis [1]: −0.02 | Log_fold change: Aminobenzoate degradation [1]: −0.01 | Log_fold change: Arginine and proline metabolism [1]: −0.01 | Log_fold change: Ascorbate and aldarate metabolism [1]: 0.03 | Log_fold change: Atrazine degradation [1]: −0.05 | Log_fold change: Bacterial chemotaxis [1]: 0.03 | Log_fold change: Bacterial secretion system [1]: 0.01 | Log_fold change: Base excision repair [1]: 0.00 | Log_fold change: Benzoate degradation [1]: −0.01 | Log_fold change: Biosynthesis of amino acids [1]: 0.00 | Log_fold change: Biosynthesis of siderophore group nonribosomal peptides [1]: −0.02 | Log_fold change: Biosynthesis of unsaturated fatty acids [1]: −0.03 | Log_fold change: Biotin metabolism [1]: −0.01 | Log_fold change: Bisphenol degradation [1]: 0.00 | Log_fold change: Butanoate metabolism [1]: −0.01 | Log_fold change: CS-Branched dibasic acid metabolism [1]: 0.01 | Log_fold change: Caprolactam degradation [1]: −0.02 | Log_fold change: Carbon fixation in photosynthetic organisms [1]: 0.00 | Log_fold change: Carbon fixation pathways in prokaryotes [1]: 0.00 | Log_fold change: Carbon metabolism [1]: −0.01 | Log_fold change: Cell cycle-Caulobacter [1]: 0.00 | Log_fold change: Chloroalkane and chloroalkene degradation [1]: −0.03 | Log_fold change: Citrate cycle (TCA cycle) [1]: 0.00 | Log_fold change: Cyanoamino acid metabolism [1]: 0.02 | Log_fold change: Cysteine and methionine metabolism [1]: 0.01 | Log_fold change: D-Alanine metabolism [1]: −0.04 | Log_fold change: D-Arginine and D-ornithine metabolism [1]: 0.24 | Log_fold change: D-Glutamine and D-glutamate metabolism [1]: −0.03 | Log_fold change: DDT degradation [1]: −0.35 | Log_fold change: DNA replication [1]: 0.00 | Log_fold change: Dioxin degradation [1]: −0.12 | Log_fold change: Drug metabolism-other enzymes [1]: 0.00 | Log_fold change: Ether lipid metabolism [1]: −0.02 | Log_fold change: Fatty acid biosynthesis [1]: −0.01 | Log_fold change: Fatty acid degradation [1]: −0.01 | Log_fold change: Fatty acid metabolism [1]: 0.00 | Log_fold change: Flagellar assembly [1]: 0.07 | Log_fold change: Folate biosynthesis [1]: 0.00 | Log_fold change: Fructose and mannose metabolism [1]: 0.00 | Log_fold change: Galactose metabolism [1]: 0.02 | Log_fold change: Geraniol degradation [1]: 0.00 | Log_fold change: Glutathione metabolism [1]: −0.03 | Log_fold change: Glycerolipid metabolism [1]: 0.00 | Log_fold change: Glycerophospholipid metabolism [1]: −0.02 | Log_fold change: Glycine, serine and threonine metabolism [1]: 0.00 | Log_fold change: Glycolysis/Gluconeogenesis [1]: −0.02 | Log_fold change: Glycosaminoglycan degradation [1]: 0.03 | Log_fold change: Glycosphingolipid biosynthesis-globoseries [1]: 0.05 | Log_fold change: Glyoxylate and dicarboxylate metabolism [1]: 0.01 | Log_fold change: Histidine metabolism [1]: 0.01 | Log_fold change: Homologous recombination [1]: −0.01 | Log_fold change: Inositol phosphate metabolism [1]: 0.02 | Log_fold change: Limonene and pinene degradation [1]: −0.01 | Log_fold change: Lipoicacid metabolism [1]: −0.01 | Log_fold change: Lipopolysaccharide biosynthesis [1]: 0.01 | Log_fold change: Lysine biosynthesis [1]: 0.00 | Log_fold change: Lysine degradation [1]: −0.03 | Log_fold change: Methane metabolism [1]: −0.01 | Log_fold change: Mismatch repair [1]: −0.01 | Log_fold change: Naphthalene degradation [1]: −0.02 | Log_fold change: Nicotinate and nicotinamide metabolism [1]: −0.02 | Log_fold change: Nitrogen metabolism [1]: 0.00 | Log_fold change: Nitrotoluene degradation [1]: −0.05 | Log_fold change: Novobiocin biosynthesis [1]: 0.02 | Log_fold change: Nucleotide excision repair [1]: 0.00 | Log_fold change: One carbon pool by folate [1]: 0.01 | Log_fold change: Other glycan degradation [1]: 0.03 | Log_fold change: Oxidative phosphorylation [1]: −0.02 | Log_fold change: Pantothenate and CoA biosynthesis [1]: 0.00 | Log_fold change: Penicillin and cephalosporin biosynthesis [1]: −0.02 | Log_fold change: Pentose and glucuronate interconversions [1]: 0.02 | Log_fold change: Pentose phosphate pathway [1]: 0.00 | Log_fold change: Peptidoglycan biosynthesis [1]: −0.02 | Log_fold change: Phenylalanine metabolism [1]: 0.01 | Log_fold change: Phenylalanine, tyrosine and tryptophan biosynthesis [1]: 0.01 | Log_fold change: Phosphonate and phosphinate metabolism [1]: −0.01 | Log_fold change: Phosphotransferase system (PTS) [1]: −0.17 | Log_fold change: Porphyrin and chlorophyll metabolism [1]: 0.01 | Log_fold change: Propanoate metabolism [1]: −0.01 | Log_fold change: Protein export [1]: −0.01 | Log_fold change: Proximal tubule bicarbonate reclamation [1]: −0.02 | Log_fold change: Purine metabolism [1]: −0.01 | Log_fold change: Pyrimidine metabolism [1]: −0.01 | Log_fold change: Pyruvate metabolism [1]: 0.00 | Log_fold change: RNA degradation [1]: −0.01 | Log_fold change: Riboflavin metabolism [1]: 0.01 | Log_fold change: Ribosome [1]: −0.01 | Log_fold change: Selenocompound metabolism [1]: −0.01 | Log_fold change: Sphingolipid metabolism [1]: 0.04 | Log_fold change: Starch and sucrose metabolism [1]: 0.01 | Log_fold change: Streptomycin biosynthesis [1]: 0.00 | Log_fold change: Styrene degradation [1]: 0.06 | Log_fold change: Sulfur metabolism [1]: −0.01 | Log_fold change: Sulfur relay system [1]: −0.03 | Log_fold change: Synthesis and degradation of ketone bodies [1]: −0.09 | Log_fold change: Taurine and hypotaurine metabolism [1]: 0.00 | Log_fold change: Terpenoid backbone biosynthesis [1]: −0.01 | Log_fold change: Tetracycline biosynthesis [1]: −0.15 | Log_fold change: Thiamine metabolism [1]: −0.02 | Log_fold change: Tropane, piperidine and pyridine alkaloid biosynthesis [1]: 0.02 | Log_fold change: Tryptophan metabolism [1]: −0.04 | Log_fold change: Two−component system [1]: 0.01 | Log_fold change: Tyrosine metabolism [1]: −0.01 | Log_fold change: Ubiquinone and other terpenoid-quinone biosynthesis [1]: −0.03 | Log_fold change: Valine, leucine and isoleucine biosynthesis [1]: 0.01 | Log_fold change: Valine, leucine and isoleucine degradation [1]: 0.00 | Log_fold change: Vibriocholerae pathogenic cycle [1]: 0.00 | Log_fold change: Vitamin B6 metabolism [1]: 0.00 | Log_fold change: Xylene degradation [1]: −0.12 | Log_fold change: beta-Alanine metabolism [1]: −0.01 | Log_fold change: beta-Lactam resistance [1]: 0.01

OC[C@H]1O[C@H](O[C@]2(CCl)O[C@H](CCl)[C@@H](O)[C@@H]2O)[C@H](O)[C@@H](O)[C@H]1Cl [sucralose]
glucose tolerance (OGTT) (mice): marked glucose intolerance | reported toxic dose [2]: 16 gkg^−1

COC(=O)[C@H](Cc1ccccc1)NC(=O)[C@@H](N)CC(=O)O [aspartame] (H-Asp-Phe-OMe)
glucose tolerance (OGTT) (mice): marked glucose intolerance | reported toxic dose [2]: 4 gkg^−1
